This note sets out measurements from patent US20220039395A1, “INSECT CONTROL AGENTS” (priority 2018, published 2022).

“Also recorded” adds a separate entry of the source. Ends that are not written are not given here. Alexa‑488‑C5‑maleimide = fluorescent Alexa 488 label coupled to Cys via C5-maleimide

The test system of assay [1] is Myzus persicae. In words: Topical application by spraying, air brush. The following applies: 750 μl, positive control 28.3 μM, counted 48 hours post spray. It is filed as in vivo. The method, then:
(§1) Aphids were exposed to test peptides in the absence of additional external stress conditions.
(§2) Brassica rapa (Chinese cabbage; Wong Bok) were infested with 30 adult Myzus persicae aphids per plant. Aphids were left at least 2 hours to settle and begin feeding from the host plant.
Spraying took place inside an externally vented fume cupboard. […] To ensure spray tracking, all sprayed solutions had amaranth dye added, allowing the full surface of the plant to be evenly coated with the aerosolised compound.
The plants to be sprayed were placed inside a plastic disposal bag, inside the fume cupboard. This was used to control the area exposed to the aerosolised liquid, to avoid extensive spraying and cleaning inside the fume cupboard. The bag was further lined with absorbent paper towel to again help contain and control spray.
Each experiment had three controls:
i) no vehicle or peptide air spray only, negative control to assess effect of spraying on aphid ability to remain attached to the plant; ii) vehicle spray only (Tween 24 0.1%); and iii) Imidacloprid positive control (28.3 μM).
Imidacloprid was always applied last to prevent any possibility of stray pesticide being left inside the disposal bag and contaminating a test peptide applied plant.
Spray volumes for all solutions for this experiment 750 μl.
A clean air brush (ABEST AC06k30) was loaded with 750 μl of peptide solution diluted in […] 0.1% vehicle. For this experiment there were three test conditions: 1895 alone (1×10^−5M); 2129 alone (1×10^−5M); and a simultaneous co-application of 1895+2129 together (1×10^−5M of each peptide). During application, the air brush was held within the plastic bag and the compressor turned on. The air brush was then gently sprayed back and forth across the plant. […]
Post peptide application, each condition was placed into its own individual Bugdorm (Watkins and Doncaster, 44545), to prevent repulsed or displaced aphids moving from one condition to another. Numbers of alive and dead aphids on the plant were counted 48 hours post spray, and the presence of any fresh nymphs noted. […]

In assay [2] the test system is Myzus persicae. In words: Topical application by spraying, Potter Spray Tower. The following applies: 3000 μl, positive control 28.3 μM, counted 48 hours post spray. It is filed as in vivo. As to the method:
as §1, §2
Spraying took place inside a designated spray room. To ensure spray tracking, all sprayed solutions had amaranth dye added.
Potter Spray Tower (Burkard Manufacturing) was ‘primed’ by spraying 1000 μl of liquid coating the inside of the tower. Two controls were used:
i) vehicle spray only (Croda ATPlus UEP 100 LQ-(CQ) 0.1% v/v); and ii) Imidacloprid positive control (28.3 μM).
Imidacloprid was always applied last and via a second, separate, Potter Tower, to prevent any possibility of stray pesticide being left inside the tower and contaminating a test peptide-applied plant.
Spray volumes for all solutions were 3000 μl. The 6.9 mm spray head was loaded with 3000 μl of a 1×10^−5M peptide solution diluted in ATPlus 0.1%. After spraying was completed the plant was allowed to rest on the spray platform for 30 seconds to allow settling of the sprayed chemical.
For this experiment there were three test conditions: 1895 alone (1×10^−5M); 2129 alone (1×10^−5M); and a simultaneous co-application of 1895+2129 together (1×10^−5M of each peptide).
Post peptide application, each condition was placed into its own individual Bugdorm (Watkins and Doncaster, 44545), to prevent repulsed or displaced aphids moving from one condition to another. Numbers of alive and dead aphids on the plant were counted 48 hours post spray, and the presence of any fresh nymphs noted. Plants were watered prior to spraying but not afterwards to eliminate the possibility of drowning any aphids present or washing off the sprayed liquid.
Post spraying, the spray head was filled with over 3000 μl of 70% ethanol and sprayed until empty. The spray head was carefully removed and rinsed with 70% ethanol as some amaranth dye was observed on the spray head. […]

The test system of assay [3] is M. rosae gut, brain and ventral nerve cord. In words: Receptor mapping assay using fluorescently labelled neuropeptides. In kind it is binding, Macrosiphum rosae. The note with it: labelled neuropeptide 10^−7 M; for site of binding in the gut: displaced by excess unlabelled peptide. As to the method: (§3) Aphids were cold anesthetized and the tissue of interest dissected out in a 1:1 solution of Schneider's insect medium and optimized saline.^7,42 The dissected tissue was mounted on a poly-L-lysine-covered 35 mm glass bottom dish containing 1:1 saline. Nuclei were stained via incubation in DAPI (1 μg ml^−1) and a baseline image taken to determine the level of autofluorescence and adjust exposure settings accordingly. All images were recorded on an inverted confocal microscope (Zeiss LSM 510 Meta). A labelled neuropeptide (10^−7 M) was subsequently added and the sample imaged. The concentration of 10^−7 M was chosen for labelled neuropeptides because it represents the minimal concentration required to produce a saturated receptor response, thereby optimizing the conditions for optical detection of ligand-receptor complexes.^7 Following imagining, unlabelled neuropeptide (10^−5 M) was added to the sample and a time-lapse experiment set up to determine if the unlabelled neuropeptide outcompeted the labelled neuropeptide, thus reaffirming the detection of the ligand-receptor complexes. Images were collected every 30 s for a duration of 20-30 m. All images were exported as JPEG files and subsequently viewed in FIJI and Microsoft Illustrator.

Assay [4] concerns M. persicae gut, brain and ventral nerve cord. The description is as above. The note with it: labelled neuropeptide 10^−7 M; for site of binding in the gut: displaced by excess unlabelled peptide. In kind it is binding, Myzus persicae. As to the method:
as §3

A further assay has as its system Aphids. In words: Feeding with peptides in artificial diet, mortality without other stress. In kind it is in vivo, Myzus persicae. The note with it: for Dead (48 h) / Dead (72 h) / Dead (96 h) / Dead (120 h) / Dead (144 h): artificial diet supplemented with peptide; for effect on mortality in the absence of additional stressors: no additional stress conditions. The method, then: A standard artificial diet for M. persicae was produced as described in Van Emden (2009) and provided the basal diet to which neuropeptide analogues were added for screening purposes. Neuropeptide analogues were diluted individually in the artificial diet to a pre-determined recommended concentration as follows: 1895 (3.5×10^−5 M) and 2019 (2.0×10^−5 M).
Feeding apparatus were constructed using a set-up developed by Sadeghi et al (2009). For this, a piece of Parafilm was stretched over a Plexiglas ring (h=4 cm, Ø=3 cm) and 100 μl of the artificial diet containing the desired neuropeptide analogue was pipette onto the Parafilm membrane. A second piece of Parafilm, stretched to 4 times the original thickness, was stretched over the original layer, sandwiching the artificial diet between two layers of Parafilm. A strip of Parafilm was wrapped around the circumference of the Plexiglas ring, sealing in the diet. A plastic ring (h=1.2 cm, Ø=3.4 cm) was subsequently placed over the Parafilm layer, creating a walled chamber in which to house test aphids in contact with the Parafilm layer containing the artificial diet. Finally, a small Petri dish (h=1 cm, Ø=3.6 cm), modified for ventilation with net cloth, was placed on top of each feeding apparatus to prevent aphid escape.
To obtain aphids for use in experiments, reproducing anholocyclic adults were placed on individual excised leaves of Chinese cabbage at densities of 5 adults per leaf and allowed to reproduce for 24 h. The stem of each excised leaf was held within a 0.5 mL Eppendorf tube containing water via a punctured hole in the Eppendorf lid, and placed individually within a microcage (L=4 cm, Ø=9.5 cm). Following 24 h, adults were removed and resultant first instar nymphs (<1 day old and synchronised in age to within 24 h) retained. Nymphs were allowed to develop on the Chinese cabbage for 5 days. On day 5, (3rd instar) nymphs were transferred onto the artificial diet containing a neuropeptide analogue at densities of 1 per feeding chamber and monitored daily until death. Aphids were transferred to fresh artificial diet (containing neuropeptide analogue) every 5 days. Life history traits recorded include age at first reproduction, number of nymphs produced per 24 h period, and lifespan. From these parameters, lifetime fecundity and daily fecundity were calculated. Control groups were set up involving aphids reared on the host plant, an artificial diet without a neuropeptide analogue, and an artificial diet containing the native CAPA neuropeptide.
Aphids were reared on artificial diet, alone or supplemented with peptide 2129, 2315, 2316 or 2320. A control group (no test peptide) was reared on a host plant. No other stress conditions were applied.
For peptides 2315, 2316 and 2320, mortality was assessed at 48, 72, 96, 120 and 144 hours. A group of 9 or 10 insects was used for each time point, and all experiments were performed at least 4 times.

Another assay relates to aphid. Nature of the assay: Topical application of peptides to aphid abdomen by microinjector, mortality. In kind it is in vivo. The note with it: 9 nl of 1×10^−5 M peptide in Armid FMPC applied topically to abdomen. As to the method:
For peptides 2315, 2320 and 2125, peptides were diluted individually in an Armid FMPC formulation (AkzoNobel Surface Chemistry, Stenungsund, Sweden) to concentration of 1×10^−5 M. Using a Nanoject II Auto-Nanoliter micro-injector, 9 nl of the peptide solution was applied topically to the abdomen of a pre-reproductive adult aphid, coating the cuticle in the solution. Aphids were returned to the host plant and allowed to recover for 24 h before use in experiments. Control aphids were topically applied with 9 nl of the Armid FMPC formulation and, once again, allowed to recover for 24 h on the host plant before use in experiments.
Peptides were applied topically to insect abdomen by microinjector and the insects returned to the plant. Mortality was assessed after 24 hours. Separate controls were performed for each experiment. A group of 9 or 10 insects was used for each time point, and all experiments were performed 3 times.

On to `O=[N+]([O-])NC1=NCCN1Cc1ccc(Cl)nc1` [Imadocloprid, Imidacloprid, reference compound], for which the “% Lethality” value was found to be 100% with Myzus persicae [1] and 93% in the assay with Myzus persicae [2].
Take “Alexa-488-C5-maleimide-CNSVVLGKKQRFHSWGamide (C(Alexa‑488‑C5‑maleimide)NSVVLGKKQRFHSWG-NH2) [kinin-F]”: in assay [3], the “staining of brain and ventral nerve cord (VNC)” value (from here on “staining”) is listed as “no specific staining”; the “site of binding in the gut” value is “bind to the circular and longitudinal muscles of the aphid gut”. Moreover, in assay [4], the “staining” value is “staining apparent in a bilateral symmetrical ‘ladder’ of neuronal clusters”; the “site of binding in the gut” value is “bind to the circular and longitudinal muscles of the aphid gut”.
Turning to “TMR-C5-maleimide-CGANMGLYAFPRVamide (TMR-C5-maleimide on Cys; C-terminal amide; labelled CAPA-1) [CAPA-1-F]”, in assay [3], the “staining” value is recorded as “no sites of receptor binding in either the brain or the VNC”; the “site of binding in the gut” value is “bind to the circular and longitudinal muscles of the aphid gut”. Also, in assay [4], the “staining” value is recorded as “no sites of receptor binding in either the brain or the VNC”; the “site of binding in the gut” value was “bind to the circular and longitudinal muscles of the aphid gut”.
Take ASG[βhL]VAFPRV-NH2 [compound 2315]: in the assay with Aphids, the “Dead (48 h)” value is given as 45.0%, the “Dead (72 h)” value stood at 60.0%, the “Dead (96 h)” value is 70.0% and the “Dead (120 h)” value is 77.5%. Moreover, in the assay with Aphids, the “Dead (144 h)” value was found to be 80.0% and the “effect on mortality in the absence of additional stressors” value (from here on “effect on mortality in the absence”) was “increase mortality in the absence of additional stressors”. For the same compound, the “effect on mortality in the absence” value with Aphids (listed as 2135) is listed as “increase mortality in the absence of additional stress conditions”. Further, the “Dead (24 h)” value in the assay with aphid is given as 33.3%.
As for ASG[βhL]V[βA]FPRV-NH2 [compound 2320], in the assay on Aphids, the “Dead (48 h)” value was 70%, the “Dead (72 h)” value amounted to 80%, the “Dead (96 h)” value was found to be 80% and the “Dead (120 h)” value worked out at 80%. Further, in the assay on Aphids, the “Dead (144 h)” value is listed as 85% and the “effect on mortality in the absence” value was “increase mortality in the absence of additional stress conditions; also recorded: increase mortality in the absence of additional stressors”. Also, the “Dead (24 h)” value in the assay on aphid turned out to be 33.3%.
